Experimental findings from the Kinase Knowledgebase extract (Sharma et al. 2016) are described below.

Where “and” joins values, the source holds several entries; their conditions need not be identical. Equal values may be shown once.

In one test the target is CDK2;CDK1 (human) (UniProt P24941). Description: Cell-Based Assay. Conditions: hela-s3.
Test [1] concerns the target CDK2 (human) (UniProt P24941). Briefly: Enzyme Assay.
Test [2] deals with CDK2 (human) (UniProt P24941). Description: Enzyme Assay. The source holds these as a separate data set.

For orientation: GI50 means the concentration giving 50% growth inhibition. The low end stands for greater sensitivity of the cells, the high end for lower sensitivity of the cells. With `CC(C)n1cnc2c(NCc3ccc(-c4ccccc4)cc3)nc(N3CCC(C(N)=O)CC3)nc21`, the concentration for 50% growth inhibition (GI50) in the test with CDK2;CDK1 (human) is 5000 nM and 3000 nM.
Still for that read-out and setting: the result for `CC(C)n1cnc2c(NCc3ccc(-c4ccccc4)cc3)nc(N[C@H]3CC[C@H](NS(=O)(=O)C(F)(F)F)CC3)nc21` reads 3000 nM and 2000 nM and 4000 nM.
As usually defined, the IC50 is the midpoint of a concentration-inhibition curve. A high value points to lower potency. Turning to `CN1CC[C@@H](c2c(O)cc(O)c3c(=O)cc(C4CCCCC4Cl)oc23)[C@@H](O)C1` (stereo partly specified), on CDK2 (human) [1], the IC50 was 200 nM and 60 nM.
Regarding `CC(C)n1cnc2c(NCc3ccc(-c4ccccc4)cc3)nc(N[C@H]3CC[C@H](N4C(=O)CCC4=O)CC3)nc21`, the GI50 in the test with CDK2;CDK1 (human) is 300 nM and 200 nM and 500 nM.
On the same count and under the same terms, the result for `CC(C)n1cnc2c(NCc3ccc(-c4ccccc4)cc3)nc(NCCCN)nc21` reads 300 nM and 600 nM; that for `CCN[C@H]1CC[C@H](Nc2nc(NCc3ccc(-c4ccccc4)cc3)c3ncn(C(C)C)c3n2)CC1`, 2000 nM and 900 nM; that for `COC(=O)N[C@H]1CC[C@H](Nc2nc(NCc3ccc(-c4ccccc4)cc3)c3ncn(C(C)C)c3n2)CC1`, 700 nM and 400 nM and 300 nM.
On the same count and under the same terms, in the case of `CC(C)n1cnc2c(NCCc3ccc(-c4ccsc4)cc3)nc(N[C@H]3CC[C@H](NC(=O)OC(C)(C)C)CC3)nc21` it was > 10000 nM and 7000 nM.
`CC(C)n1cnc2c(NCc3ccc(-c4ccccc4)cc3)nc(NC[C@H](C)NC(=O)OC(C)(C)C)nc21`: the IC50 against CDK2 (human) [1] is 4000 nM and 11000 nM; at CDK2 (human) [2], 3000 nM and 1000 nM. Also, the GI50 with CDK2;CDK1 (human) was 300 nM and 100 nM.
On to `CC(C)n1cnc2c(NCc3ccc(-c4ccccc4)cc3)nc(N3CCC(N)C3)nc21` (stereo unspecified), for which, in the test with CDK2;CDK1 (human), the GI50 was 500 nM. In other words, the sub-micromolar range.
For `CC(=O)N[C@H]1CC[C@H](Nc2nc(NCc3ccc(-c4cccc(C)c4)cc3)c3ncn(C(C)C)c3n2)CC1`, in the test with CDK2;CDK1 (human), the GI50 was 400 nM and 200 nM.
As for `CC(=O)NCCNc1nc(NCc2ccc(-c3ccccc3)cc2)c2ncn(C(C)C)c2n1`, in the test with CDK2;CDK1 (human), the GI50 is 3000 nM and 4000 nM.
On the same count and under the same terms, in the case of `COc1cccc(-c2ccc(CNc3nc(N[C@H]4CC[C@H](NC(C)=O)CC4)nc4c3ncn4C(C)C)cc2)c1` it was 300 nM and 400 nM.
As for `CC(C)n1cnc2c(NCc3ccc(-c4ccccc4)cc3)nc(N[C@H]3CC[C@H](N(CC4CC4)CC4CC4)CC3)nc21`, the GI50 in the test with CDK2;CDK1 (human) was found to be 30 nM.
The same measure, in the same setting: in the case of `CC(C)n1cnc2c(NCc3ccc(-c4ccccc4)cc3)nc(N[C@H]3CC[C@H](NCC4CC4)CC3)nc21` it was 300 nM.
For the molecule `CCn1cnc2c(NCc3ccc(Cl)cc3)nc(N[C@H]3CCCC[C@H]3N)nc21`, the IC50 was found to be 1000 nM at CDK2 (human) [1] and 100 nM against CDK2 (human) [2]. This molecule registered a GI50 in the test with CDK2;CDK1 (human) of 3000 nM.
As to `CC(C)n1cnc2c(NCc3ccc(-c4ccccc4)cc3)nc(NCCN)nc21`, the GI50 in the test with CDK2;CDK1 (human) is 200 nM and 400 nM.
On the same count and under the same terms, the result for `CCN(C(C)=O)[C@H]1CC[C@H](Nc2nc(NCc3ccc(-c4ccccc4)cc3)c3ncn(C(C)C)c3n2)CC1` reads 600 nM and 800 nM; that for `CCCCN[C@H]1CC[C@H](Nc2nc(NCc3ccc(-c4ccccc4)cc3)c3ncn(C(C)C)c3n2)CC1`, 500 nM and 300 nM.
Still for that read-out and setting: in the case of `CC(C)n1cnc2c(NCc3ccc(-c4ccccc4)cc3)nc(N[C@H]3CC[C@H](NS(C)(=O)=O)CC3)nc21` it was 200 nM and 100 nM.
For `CCC(=O)N[C@H]1CC[C@H](Nc2nc(NCc3ccc(-c4ccccc4)cc3)c3ncn(C(C)C)c3n2)CC1`, the GI50 with CDK2;CDK1 (human) is 200 nM and 400 nM and 300 nM.
Still for that read-out and setting: in the case of `CC(C)n1cnc2c(NCc3ccc(-c4ccccc4)cc3)nc(N[C@H]3CC[C@H](NC(=O)C4CC4)CC3)nc21` it was 300 nM.
